Test results: patent US20220267271A1, “WNT ACTIVATORS AND METHODS OF USE” (MAYO FOUNDATION FOR MEDICAL EDUCATION AND RESEARCH, priority 2019, published 2022)
Blank lines part the entries; values can stand above or below the compound they belong to.

Columns and labels:
[1] = tested on: LRP6; assay: Endogenous LRP6 expression in N2a cells by Western blotting; format: cell-based; settings: 0.8 and 1.6 μM, 24 h
Method: (A) HT1080 cells stably transduced with human LRP6 with HA tag were treated with niciosamide (1 μM) and other compounds as noted (1 μM) for 24 hr. The levels of HA-LRP6 were examined by Western blots with anti-HA antibody. All samples were also probed with anti-actin antibody to verify equal loading. This experiment is a representative of two such experiments performed with similar data. (B) N2a cells were treated with 1015 and 1011 at the indicated concentrations for 24 h. The expression levels of LRP6, β-catenin and actin were examined by Western blotting. This experiment is a representative of three such experiments performed with similar data. (C) HEK293 cells were transfected with LRP6 siRNAs, and after 8 h incubation were further transfected with Super8XTOPFlash construct and β galactosidase-expressing vector. […] The luciferase activity was then measured and normalized to β-galactosidase activity. […]
Western blotting: Cells in 6-well plates were lysed in 0.5 ml of lysis buffer (phosphate-buffered saline containing 1% Triton X-100, 1× Proteinase inhibitor cocktail Complete, and 1 mM PMSF) at 4° C. for 15 min. Equal quantities of protein were subjected to SDS-PAGE under reducing conditions. […] The immunoreactive proteins were then detected using the ECL system or the Odyssey infrared imaging system (LI-COR). […]

[2] = tested on: β-catenin; assay: β-catenin level in N2a cells by Western blotting; format: cell-based; settings: 24 h; for β-catenin level: concentration as low as 0.1 μM; for EC50: Mus musculus, 3-4 independent experiments, read-out: EC50 values (X±SD), β-catenin level
Method: (A,C) N2a cells were treated with CI-994 at the indicated concentration for 24 h, and the levels of β-catenin (A) and BACE1 (C) were examined by Western blotting. (B,D) The band intensity of β-catenin and BACE1 was quantified and normalized to the corresponding signal for actin. The results represented in the histograms are shown as the mean±SD and are the average of three independent experiments. *P<0.05, **P<0.01 versus corresponding control value.
N2a cells were treated with 1015, 1011, or 1020 at the indicated concentration for 24 h. (A) the levels of total cellular β-catenin were examined by Western blotting. (B) The intensity of the β-catenin bands were quantified and normalized to the corresponding signal for actin. The results represented in the histograms are shown as the mean±SD and are the average of 3-4 independent experiments, and the EC50 values were calculated with graphpad prism.
Western blotting: Cells in 6-well plates were lysed in 0.5 ml of lysis buffer (phosphate-buffered saline containing 1% Triton X-100, 1× Proteinase inhibitor cocktail Complete, and 1 mM PMSF) at 4° C. for 15 min. Equal quantities of protein were subjected to SDS-PAGE under reducing conditions. Following transfer to immobilon-P transfer membrane, successive incubations with a primary antibody, and a horseradish peroxidase-conjugated secondary antibody or IRDye® 680RD goat anti-rabbit/mouse secondary antibodies were carried out for 60-120 min at room temperature. The immunoreactive proteins were then detected using the ECL system or the Odyssey infrared imaging system (LI-COR). Films showing immunoreactive bands were scanned by Hp Scanjet 5590.

[3] = tested on: E. coli strain TOP10-pTac-lux-CDABE; assay: Bacterial cytotoxicity evaluation (luminescence); settings: 6.25-400 μM, 4 h
Method: In addition, bacterial cytotoxicity evaluation was performed using E. coli strain TOP10-pTac-lux-CDABE, expressing both luciferase (a heterodimer of LuxA and LuxB subunits) and the enzymes required for the production of luciferase substrate (LuxC, LuxD and LuxE). For the experiment, bacterial culture was grown overnight in LB medium at 37° C. with shaking at 250 rpm. The overnight culture was diluted 1:666 into fresh LB medium supplemented with 50 μg/ml kanamycin and incubated at 37° C. and 250 rpm to OD600 0.4-0.5. Serial dilutions of the test compounds in DMSO were prepared (40 mM, 20 mM, 10 mM, 5 mM, 2.5 mM, 1.25 mM, 0.625 mM) and 4 μl aliquots of each solution were transferred into 96-well plate and mixed with 96 μl of 0.9% NaCl. Then, 10 μl of the dilutions were dispensed into the appropriate wells of 384-well white screening microplate. 30 μl aliquots of freshly grown bacterial culture at OD600 of 0.4-0.5 were added to each well with compounds' dilutions (Final concentration of the test compounds were 400 μM, 200 μM, 100 μM, 50 μM, 25 μM, 12.5 μM, 6.25 μM). The plate was incubated for 4 h at 37° C. and the luminescence.

SMILES: CC1CCCC(C)N1CCNC(=O)c1ccc(C(=O)Nc2ccccc2N)nc1 (centres unmarked) [Compound 1011]
- endogenous LRP6 expression [1]: significantly enhanced
- β-catenin level [2]: significantly enhanced
- EC50 [2]: 0.93 ± 0.01 µM
- cytotoxicity for bacterial cells [3]: no cytotoxicity

SMILES: Nc1ccccc1NC(=O)c1ccc(C(=O)NCC2CCN2C2CCCC2)cn1 (centres unmarked) [Compound 1015]
- endogenous LRP6 expression [1]: significantly enhanced
- β-catenin level [2]: significantly enhanced
- EC50 [2]: 0.96 ± 0.14 µM
- cytotoxicity for bacterial cells [3]: no cytotoxicity

- EC50 [2]: 1.02 ± 0.24 µM
SMILES: Nc1ccccc1NC(=O)c1ccc(C(=O)NCCN2CCC3(CCCCC3)CC2)cc1 [Compound 1020]
- β-catenin level [2]: significantly enhanced

SMILES: CC(=O)Nc1ccc(C(=O)Nc2ccccc2N)cc1 [CI-994, 4-(acetylamino)-N-(2-aminophenyl)benzamide, reference compound]
- β-catenin levels ([2]; CI-994 at the indicated concentration): significantly increased
